Among the data in patent US10722501B2 (BAYER AKTIENGESELLSCHAFT, priority 2016, dated 2020) are IC50 values, retold here.

The target in the assay is T1, recombinant full-length human prolyl endopeptidase (PREP) (Homo sapiens, UniProt P48147).
T1 construct: To recombinant full-length human prolyl endopeptidase (PREP, R&D-Systems, 4308-SE); purchased R&D-Systems 4308-SE
T1 sequence (P48147 1-710): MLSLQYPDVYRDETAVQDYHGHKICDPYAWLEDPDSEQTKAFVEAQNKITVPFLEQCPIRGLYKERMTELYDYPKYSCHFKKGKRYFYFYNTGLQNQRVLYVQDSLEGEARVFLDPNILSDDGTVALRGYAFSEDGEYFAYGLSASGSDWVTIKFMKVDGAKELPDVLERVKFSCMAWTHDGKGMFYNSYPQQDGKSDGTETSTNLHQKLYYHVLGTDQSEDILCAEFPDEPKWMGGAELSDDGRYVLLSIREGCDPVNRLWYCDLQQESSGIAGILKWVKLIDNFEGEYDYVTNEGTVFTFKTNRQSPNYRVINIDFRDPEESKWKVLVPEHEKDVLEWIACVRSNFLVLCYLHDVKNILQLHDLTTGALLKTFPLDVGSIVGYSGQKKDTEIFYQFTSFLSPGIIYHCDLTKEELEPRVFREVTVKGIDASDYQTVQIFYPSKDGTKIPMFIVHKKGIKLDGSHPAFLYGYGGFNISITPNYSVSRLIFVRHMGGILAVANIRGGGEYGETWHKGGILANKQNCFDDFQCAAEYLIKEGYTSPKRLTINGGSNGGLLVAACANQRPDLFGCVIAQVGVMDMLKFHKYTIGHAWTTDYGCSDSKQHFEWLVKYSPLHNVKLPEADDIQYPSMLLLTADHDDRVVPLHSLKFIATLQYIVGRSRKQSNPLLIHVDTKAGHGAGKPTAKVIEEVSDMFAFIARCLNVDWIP
The assay is described as follows: Biochemical human prolyl endopeptidase (PREP) assay with fluorescently labelled substrate. The following applies: substrate Z-Gly-Pro-AMC 50 μM, 32° C., 60 min; some as mean values from multiple independent determinations. As for the experimental part: B-1 Biochemical Human Prolyl Endopeptidase (PREP) Assay for Identification of Inhibitors of PREP Activity Using a Fluorescently Labelled Substrate Principle of the Assay:
The enzymatic conversion of the fluorescent peptide substrate was observed on the basis of the measurement of the fluorescence intensity. The enzyme activity was determined by the ascertaining of the initial slope in the increase in fluorescence. Compounds that inhibit PREP were identified on the basis of the decrease in the initial slope compared to a reaction mixture without test compound.
Determination of Activity:
IC50 values were determined by the plotting of the percentage PREP activity against the concentration of the test substance by interpolation.
To recombinant full-length human prolyl endopeptidase (PREP, R&D-Systems, 4308-SE; final concentration, for example, 0.4 nM, volume: 25 μl) in reaction buffer (50 mM Tris-HCl, pH 7.5; 150 mM NaCl; 0.13% BSA, 5 mM EDTA, 3 mM GSH, 0.005% Brij-35) was added a test compound (in DMSO, in an appropriate final concentration range from 1 nM to 30 μM, volume: 1 μl) in a well of a 384-well microtitre plate. The reaction was initiated by adding the substrate Z-Gly-Pro-AMC (final concentration 50 μM; Z=carboxybenzyl; AMC=7-amino-4-methylcoumarin, volume: 25 μl). The progress of the PREP reaction was observed by measuring the fluorescence intensity in a Tecan SAFIRE II plate spectrophotometer at 32° C. over a period of 60 min (excitation wavelength: 360 nm, emission wavelength: 465 nm).
Table B-1 below collates the IC50 values thus obtained from the human prolyl endopeptidase assay for individual working examples of the invention (some as mean values from multiple independent individual determinations).
As a reminder, the IC50 is the point on the concentration scale where inhibition reaches its midpoint. `Cc1noc(-c2ccc(Cn3nc4n(c3=O)C(C(=O)N3CCCC3)CCC4)cc2)n1` (racemic) [Example 9, (5RS)-2-[4-(3-Methyl-1,2,4-oxadiazol-5-yl)benzyl]-5-(pyrrolidin-1-ylcarbonyl)-5,6,7,8-tetrahydro[1,2,4]triazolo[4,3-a]pyridin-3(2H)-one]: the IC50 was 39 nM.
The value for `Cc1nc(-c2ccc(Cn3nc4n(c3=O)C(C(=O)N3CCCC3)CCC4)cc2)no1` (racemic) [Example 10, (5RS)-2-[4-(5-Methyl-1,2,4-oxadiazol-3-yl)benzyl]-5-(pyrrolidin-1-ylcarbonyl)-5,6,7,8-tetrahydro[1,2,4]triazolo[4,3-a]pyridin-3(2H)-one] was 24 nM; that for `O=C(C1CCCc2nn(Cc3ccc4c(c3)CCC4)c(=O)n21)N1CCCC1` (racemic) [Example 11, (5RS)-2-(2,3-Dihydro-1H-inden-5-ylmethyl)-5-(pyrrolidin-1-ylcarbonyl)-5,6,7,8-tetrahydro[1,2,4]triazolo[4,3-a]pyridin-3(2H)-one] was 0.7 nM.
For the compound `Cc1nc(Cn2nc3n(c2=O)C(C(=O)N2CCCC2)CCC3)no1` (racemic) [Example 12, (5RS)-2-[(5-Methyl-1,2,4-oxadiazol-3-yl)methyl]-5-(pyrrolidin-1-ylcarbonyl)-5,6,7,8-tetrahydro[1,2,4]triazolo[4,3-a]pyridin-3(2H)-one], the IC50 is 99.5 nM.
The value for `Cc1cc(Cn2nc3n(c2=O)C(C(=O)N2CCCC2)CCC3)on1` (racemic) [Example 13, (5RS)-2-[(3-Methyl-1,2-oxazol-5-yl)methyl]-5-(pyrrolidin-1-ylcarbonyl)-5,6,7,8-tetrahydro[1,2,4]triazolo[4,3-a]pyridin-3(2H)-one] was 5.4 nM; that for `O=C(C1CCCc2nn(Cc3ccc(C(F)(F)F)c(F)c3)c(=O)n21)N1CCCC1` (racemic) [Example 14] was 0.3 nM; that for `Cc1cc(Cn2nc3n(c2=O)C(C(=O)N2CCCC2)CCC3)ccn1` (racemic) [Example 15, (5RS)-2-[(2-Methylpyridin-4-yl)methyl]-5-(pyrrolidin-1-ylcarbonyl)-5,6,7,8-tetrahydro[1,2,4]triazolo[4,3-a]pyridin-3(2H)-one] was 8.4 nM.
The value for `O=C(C1CCCc2nn(Cc3cccc(F)c3)c(=O)n21)N1CCCC1` (racemic) [Example 16, (5RS)-2-(3-Fluorobenzyl)-5-(pyrrolidin-1-ylcarbonyl)-5,6,7,8-tetrahydro[1,2,4]triazolo[4,3-a]pyridin-3(2H)-one] was 2.2 nM; that for `O=C(C1CCCc2nn(Cc3ccc(F)c(F)c3)c(=O)n21)N1CCCC1` (racemic) [Example 17, (5RS)-2-(3,4-Difluorobenzyl)-5-(pyrrolidin-1-ylcarbonyl)-5,6,7,8-tetrahydro[1,2,4]triazolo[4,3-a]pyridin-3(2H)-one] was 1.2 nM; that for `O=C(C1CCCc2nn(Cc3ccc(F)c(Cl)c3)c(=O)n21)N1CCCC1` (racemic) [Example 18, (5RS)-2-(3-Chloro-4-fluorobenzyl)-5-(pyrrolidin-1-ylcarbonyl)-5,6,7,8-tetrahydro[1,2,4]triazolo[4,3-a]pyridin-3(2H)-one] was 0.575 nM.
Consider `O=C(C1CCCc2nn(Cc3cccc(C(F)(F)F)c3)c(=O)n21)N1CCCC1` (racemic) [Example 19, (5RS)-5-(Pyrrolidin-1-ylcarbonyl)-2-[3-(trifluoromethyl)benzyl]-5,6,7,8-tetrahydro[1,2,4]triazolo[4,3-a]pyridin-3(2H)-one], for which the IC50 is 0.57 nM.
As for `COc1cccc(Cn2nc3n(c2=O)C(C(=O)N2CCCC2)CCC3)c1` (racemic) [Example 20, (5RS)-2-(3-Methoxybenzyl)-5-(pyrrolidin-1-ylcarbonyl)-5,6,7,8-tetrahydro[1,2,4]triazolo[4,3-a]pyridin-3(2H)-one], the figure is 1.5 nM; as for `Cn1ccc(Cn2nc3n(c2=O)C(C(=O)N2CCCC2)CCC3)n1` (racemic) [Example 21, (5RS)-2-[(1-Methyl-1H-pyrazol-3-yl)methyl]-5-(pyrrolidin-1-ylcarbonyl)-5,6,7,8-tetrahydro[1,2,4]triazolo[4,3-a]pyridin-3(2H)-one], 6.9 nM.
Consider `O=C(C1CCCc2nn(Cc3ccccn3)c(=O)n21)N1CCCC1` (racemic) [Example 22, (5RS)-2-(Pyridin-2-ylmethyl)-5-(pyrrolidin-1-ylcarbonyl)-5,6,7,8-tetrahydro[1,2,4]triazolo[4,3-a]pyridin-3(2H)-one], for which the IC50 was 42 nM.
For `O=C(C1CCCc2nn(Cc3ccc(C(F)(F)F)cn3)c(=O)n21)N1CCCC1` (racemic) [Example 23, (5RS)-5-(Pyrrolidin-1-ylcarbonyl)-2-{[5-(trifluoromethyl)pyridin-2-yl]methyl}-5,6,7,8-tetrahydro[1,2,4]triazolo[4,3-a]pyridin-3(2H)-one], the IC50 came out at 4.95 nM.
With `Cc1[nH]cnc1Cn1nc2n(c1=O)C(C(=O)N1CCCC1)CCC2` (racemic) [Example 24, (5RS)-2-[(5-Methyl-1H-imidazol-4-yl)methyl]-5-(pyrrolidin-1-ylcarbonyl)-5,6,7,8-tetrahydro[1,2,4]triazolo[4,3-a]pyridin-3(2H)-one], the IC50 turned out to be 4.9 nM.
As for `Cc1ccc(Cn2nc3n(c2=O)C(C(=O)N2CCCC2)CCC3)cc1` (racemic) [Example 25, (5RS)-2-(4-Methylbenzyl)-5-(pyrrolidin-1-ylcarbonyl)-5,6,7,8-tetrahydro[1,2,4]triazolo[4,3-a]pyridin-3(2H)-one], the figure is 0.76 nM; as for `O=C(C1CCCc2nn(Cc3ccc(Cl)cc3)c(=O)n21)N1CCCC1` (racemic) [Example 27, (5RS)-2-(4-Chlorobenzyl)-5-(pyrrolidin-1-ylcarbonyl)-5,6,7,8-tetrahydro[1,2,4]triazolo[4,3-a]pyridin-3(2H)-one], 1.28 nM; as for `CC(C)(C)OC(=O)c1ccc(Cn2nc3n(c2=O)C(C(=O)N2CCCC2)CCC3)cc1` (racemic) [Example 28, tert-Butyl 4-{[(5RS)-3-oxo-5-(pyrrolidin-1-ylcarbonyl)-5,6,7,8-tetrahydro[1,2,4]triazolo[4,3-a]pyridin-2(3H)-yl]methyl}benzoate], 24 nM.
Regarding `NS(=O)(=O)c1ccc(Cn2nc3n(c2=O)C(C(=O)N2CCCC2)CCC3)cc1` (racemic) [Example 29, 4-{[(5RS)-3-Oxo-5-(pyrrolidin-1-ylcarbonyl)-5,6,7,8-tetrahydro[1,2,4]triazolo[4,3-a]pyridin-2(3H)-yl]methyl}benzenesulphonamide], the IC50 amounted to 1.2 nM.
The value for `CSc1ccc(Cn2nc3n(c2=O)C(C(=O)N2CCCC2)CCC3)cc1` (racemic) [Example 30, (5RS)-2-[4-(Methylsulphanyl)benzyl]-5-(pyrrolidin-1-ylcarbonyl)-5,6,7,8-tetrahydro[1,2,4]triazolo[4,3-a]pyridin-3(2H)-one] was 1.6 nM; that for `O=C(C1CCCc2nn(Cc3ccc(Cl)nc3)c(=O)n21)N1CCCC1` (racemic) [Example 31, (5RS)-2-[(6-Chloropyridin-3-yl)methyl]-5-(pyrrolidin-1-ylcarbonyl)-5,6,7,8-tetrahydro[1,2,4]triazolo[4,3-a]pyridin-3(2H)-one] was 2.9 nM.
As for `O=C(C1CCCc2nn(Cc3ccc(Cl)cn3)c(=O)n21)N1CCCC1` (racemic) [Example 33, (5RS)-2-[(5-Chloropyridin-2-yl)methyl]-5-(pyrrolidin-1-ylcarbonyl)-5,6,7,8-tetrahydro[1,2,4]triazolo[4,3-a]pyridin-3(2H)-one], the figure is 7.7 nM.
As for `N#Cc1ccc(Cn2nc3n(c2=O)C(C(=O)N2CCCC2)CCC3)cn1` (racemic) [Example 35, 5-{[(5RS)-3-Oxo-5-(pyrrolidin-1-ylcarbonyl)-5,6,7,8-tetrahydro[1,2,4]triazolo[4,3-a]pyridin-2(3H)-yl]methyl}pyridine-2-carbonitrile], the figure is 15 nM.
